Data taken from patent publication US12545652B2, “Crystalline forms of a TYK2 inhibitor” (Sareum Limited, priority 2020, dated 2026).
≈ marks a conversion by molar mass, not a printed value.

What was measured:
Type in all cases: physicochemical
[1] = Rapidly cooled, reverse anti-solvent addition crystallisation at −10° C., observations and form fate by XRPD; settings: for Observation: −10° C., 30 vol. anti-solvent; for Crystalline Form fate by XRPD: Reverse addition to anti-solvent at −10° C.
Experimental: Anti-solvent crystallisation was carried out by dissolving 2-(2,6-dichlorophenyl)-5-[4-(1,1-dioxo-1,4-thiazinane-4-carbonyl)anilino]oxazole-4-carboxamide in a solvent with heating, clarifying the solution and adding cold anti-solvent using the following method.
2-(2,6-dichlorophenyl)-5-[4-(1,1-dioxo-1,4-thiazinane-4-carbonyl)anilino]oxazole-4-carboxamide, 4×153-155 mg, was weighed into four crystallisation tubes and a different solvent (see Table 10) was charged into each. The mixtures were heated to 60° C. to achieve dissolution and then clarified.
Three anti-solvents (see Table 10), 1.5 ml, were each charged to four crystallisation tubes and cooled to −10° C.
The clarified solutions of 2-(2,6-dichlorophenyl)-5-[4-(1,1-dioxo-1,4-thiazinane-4-carbonyl)anilino]oxazole-4-carboxamide at 60° C. were charged to the cold anti-solvents in aliquots containing ca. 50 mg of the compound (into ca. 30 vol. anti-solvent) and immediate observations were noted.
The resulting mixtures were equilibrated at −10° C. for ca. 22 hours, observations were made and the solids were isolated. All isolated solids were dried in vacuo under air for ca. 20 minutes and then dried in vacuo at 45° C. for 23½ hours.

[2] = Compression stability test (10×10^4N force)
Experimental: Compression stability tests were carried out on samples from two batches of crystalline Form A and samples from two batches of Crystalline Form B. One pair of samples of Form A and Form B was subjected to compression under 10×10^4N force for 23 and 23¾ hours respectively to assess the impact upon form fate and chemical stability.
The other pair of samples of Form A and Form B was subjected to similar compression pressures over an extended duration of 7 days to assess the impact of prolonged compression force upon form fate and chemical stability.

[3] = Dynamic vapour sorption (DVS); settings: 25° C.
Experimental: Sorption isotherms were obtained using a Hiden Isochema moisture sorption analyser (model IGAsorp), controlled by IGAsorp Systems Software V6.50.48. The sample was maintained at a constant temperature (25° C.) by the instrument controls. The humidity was controlled by mixing streams of dry and wet nitrogen, with a total flow of 250 ml·min^−1. The instrument was verified for relative humidity content by measuring three calibrated Rotronic salt solutions (10-50-88%). The weight change of the sample was monitored as a function of humidity by a microbalance (accuracy +/−0.005 mg). A defined amount of sample was placed in a tared mesh stainless steel basket under ambient conditions. A full experimental cycle typically consisted of three scans (sorption, desorption and sorption) at a constant temperature (25° C.) and 10% RH intervals over a 0-90% range (60 minutes for each humidity level).

[4] = Solubility at 25° C. by HPLC of filtrates after equilibration of Form A in solvents; settings: for solubility: 25 °C, organic solvent or mixture, thermodynamic from solid

Observation ([1]; ID A1, THF/water, 4:1 10 vol., Heptane, 5 Hrs): Suspension
Observation ([1]; ID A1, THF/water, 4:1 10 vol., Heptane, 22 Hrs): Suspension
Observation ([1]; ID A1, THF/water, 4:1 10 vol., Heptane, Immediate): Gum
Observation ([1]; ID A2, THF/water, 4:1 10 vol., Benzotrifluoride, 5 Hrs): Suspension
Observation ([1]; ID A2, THF/water, 4:1 10 vol., Benzotrifluoride, 22 Hrs): Suspension
Observation ([1]; ID A2, THF/water, 4:1 10 vol., Benzotrifluoride, Immediate): Suspension
Observation ([1]; ID A3, THF/water, 4:1 10 vol., 2-Chlorobutane, 5 Hrs): Suspension
Observation ([1]; ID A3, THF/water, 4:1 10 vol., 2-Chlorobutane, 22 Hrs): Suspension
Observation ([1]; ID A3, THF/water, 4:1 10 vol., 2-Chlorobutane, Immediate): Suspension
Observation ([1]; ID B1, THF 25 vol., Heptane, 5 Hrs): Suspension
Observation ([1]; ID B1, THF 25 vol., Heptane, 22 Hrs): Suspension
Observation ([1]; ID B1, THF 25 vol., Heptane, Immediate): Suspension
Observation ([1]; ID B2, THF 25 vol., Benzotrifluoride, 5 Hrs): Suspension
Observation ([1]; ID B2, THF 25 vol., Benzotrifluoride, 22 Hrs): Suspension
Observation ([1]; ID B2, THF 25 vol., Benzotrifluoride, Immediate): Suspension
Observation ([1]; ID B3, THF 25 vol., 2-Chlorobutane, 5 Hrs): Suspension
Observation ([1]; ID B3, THF 25 vol., 2-Chlorobutane, 22 Hrs): Suspension
Observation ([1]; ID B3, THF 25 vol., 2-Chlorobutane, Immediate): Suspension
Observation ([1]; ID C1, Nitromethane 50 vol., Heptane, 5 Hrs): Bi. Susp.
Observation ([1]; ID C1, Nitromethane 50 vol., Heptane, 22 Hrs): Bi. Susp.
Observation ([1]; ID C1, Nitromethane 50 vol., Heptane, Immediate): Immiscible
Observation ([1]; ID C2, Nitromethane 50 vol., Benzotrifluoride, 5 Hrs): Solution
Observation ([1]; ID C2, Nitromethane 50 vol., Benzotrifluoride, 22 Hrs): Suspension
Observation ([1]; ID C2, Nitromethane 50 vol., Benzotrifluoride, Immediate): Solution
Observation ([1]; ID C3, Nitromethane 50 vol., 2-Chlorobutane, 5 Hrs): Solution
Observation ([1]; ID C3, Nitromethane 50 vol., 2-Chlorobutane, 22 Hrs): Haze
Observation ([1]; ID C3, Nitromethane 50 vol., 2-Chlorobutane, Immediate): Solution
Observation ([1]; ID D1, MeCN/water, 4:1 55 vol., Heptane, 5 Hrs): Bi. Susp.
Observation ([1]; ID D1, MeCN/water, 4:1 55 vol., Heptane, 22 Hrs): Bi. Susp.
Observation ([1]; ID D1, MeCN/water, 4:1 55 vol., Heptane, Immediate): Immiscible
Observation ([1]; ID D2, MeCN/water, 4:1 55 vol., Benzotrifluoride, 5 Hrs): Suspension
Observation ([1]; ID D2, MeCN/water, 4:1 55 vol., Benzotrifluoride, 22 Hrs): Suspension
Observation ([1]; ID D2, MeCN/water, 4:1 55 vol., Benzotrifluoride, Immediate): Haze
Observation ([1]; ID D3, MeCN/water, 4:1 55 vol., 2-Chlorobutane, 5 Hrs): Suspension
Observation ([1]; ID D3, MeCN/water, 4:1 55 vol., 2-Chlorobutane, 22 Hrs): Suspension
Observation ([1]; ID D3, MeCN/water, 4:1 55 vol., 2-Chlorobutane, Immediate): Haze
Crystalline Form fate by XRPD ([1]; MeCN/water, 4:1 55 vol., 2-Chlorobutane): Form B
Crystalline Form fate by XRPD ([1]; MeCN/water, 4:1 55 vol., Benzotrifluoride): Form B
Crystalline Form fate by XRPD ([1]; MeCN/water, 4:1 55 vol., Heptane): Form A
Crystalline Form fate by XRPD ([1]; Nitromethane 50 vol., 2-Chlorobutane): Form B/C mix
Crystalline Form fate by XRPD ([1]; Nitromethane 50 vol., Benzotrifluoride): Form C
Crystalline Form fate by XRPD ([1]; Nitromethane 50 vol., Heptane): Form C
Crystalline Form fate by XRPD ([1]; THF 25 vol., 2-Chlorobutane): Low cryst. Form C
Crystalline Form fate by XRPD ([1]; THF 25 vol., Benzotrifluoride): Low cryst. Form B
Crystalline Form fate by XRPD ([1]; THF 25 vol., Heptane): Low cryst. Form B +
Crystalline Form fate by XRPD ([1]; THF/water, 4:1 10 vol., 2-Chlorobutane): Low cryst. Form B
Crystalline Form fate by XRPD ([1]; THF/water, 4:1 10 vol., Benzotrifluoride): Low cryst. Form B
Crystalline Form fate by XRPD ([1]; THF/water, 4:1 10 vol., Heptane): Low cryst. Form B
HPLC assessment post-compression (chemical stability) ([2]; compression for 7 days): significant chemical degradation
HPLC assessment post-compression (chemical stability) ([2]; compression for ca. 1 day (23 / 23¾ hours), 10×10^4N): no discernible chemical degradation
DVS total weight gain upon sorption ([3]; from 0 to 90% RH): ca. 3.25 wt %
DVS weight reduction upon the first desorption ([3]; from 50 to 0% RH): ca. 2.75 wt %
Solubility at 25° C. ([4]; 2-Chlorobutane): 290 µg/mL (≈ 0.569 mM)
solubility ([4]; 4:1 IPA/water, 4:1 IPA/water): 7650 µg/mL (≈ 15 mM)
solubility ([4]; 4:1 MeCN/water, 4:1 MeCN/water): 19800 µg/mL (≈ 38.8 mM)
Solubility at 25° C. ([4]; 4:1 THF/water): >67000 µg/mL
Solubility at 25° C. ([4]; Anisole): 10610 µg/mL (≈ 20.8 mM)
solubility ([4]; CPME): 1870 µg/mL (≈ 3.67 mM)
Solubility at 25° C. ([4]; Cyclohexane): 10 µg/mL (≈ 0.0196 mM)
Solubility at 25° C. ([4]; DCM): 22830 µg/mL (≈ 44.8 mM)
solubility ([4]; EtOAc): 6640 µg/mL (≈ 13 mM)
solubility ([4]; EtOH): 5200 µg/mL (≈ 10.2 mM)
solubility ([4]; IPA): 2450 µg/mL (≈ 4.81 mM)
solubility ([4]; MEK): 6080 µg/mL (≈ 11.9 mM)
solubility ([4]; MIBK): 7400 µg/mL (≈ 14.5 mM)
solubility ([4]; MeCN): 9160 µg/mL (≈ 18 mM)
solubility ([4]; MeOH): 2520 µg/mL (≈ 4.95 mM)
Solubility at 25° C. ([4]; Nitromethane): 20520 µg/mL (≈ 40.3 mM)
Solubility at 25° C. ([4]; TBME): 700 µg/mL (≈ 1.37 mM)
Solubility at 25° C. ([4]; THF): 33300 µg/mL (≈ 65.4 mM)
Solubility at 25° C. ([4]; Water): 60 µg/mL (≈ 0.118 mM)
solubility ([4]; benzotrifluoride): 160 µg/mL (≈ 0.314 mM)
solubility ([4]; chlorobenzene): 1870 µg/mL (≈ 3.67 mM)
solubility ([4]; iPrOAc): 6960 µg/mL (≈ 13.7 mM)
solubility ([4]; toluene): 1120 µg/mL (≈ 2.2 mM)
Structure (SMILES): NC(=O)c1nc(-c2c(Cl)cccc2Cl)oc1Nc1ccc(C(=O)N2CCS(=O)(=O)CC2)cc1 [Form A, 2-(2,6-dichlorophenyl)-5-[4-(1,1-dioxo-1,4-thiazinane-4-carbonyl)anilino]oxazole-4-carboxamide]
XRPD examination of solids isolated post-compression (form fate) ([2]; compression for both ca. 1 and 7 days): diffraction pattern matching the input Form A but of reduced diffraction resolution
